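All cell lines were grown in 96-well plates and treated with compound for 48 hours. GI50 = concentration required for 50% inhibition of growth.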 Calls of active or inactive are those of the source. No stated cut-off is given here; in the data, active = GI50 up to about 1.1 µM and inactive = higher.
Assays:
Experiment in all cases: NCI-60 cell line screen, 48 h
SK-MEL-28 = test system: SK-MEL-28
M14 = test system: M14
IGROV-1 = test system: IGROV-1
U-251 = test system: U-251
SF-268 = test system: SF-268
SK-OV-3 = test system: SK-OV-3
SF-295 = test system: SF-295
RPMI-8226 = test system: RPMI-8226
UACC-257 = test system: UACC-257
HL-60 = test system: HL-60
SNB-19 = test system: SNB-19
OVCAR-5 = test system: OVCAR-5
KM12 = test system: KM12
COLO 205 = test system: COLO 205
A498 = test system: A498
SW-620 = test system: SW-620
SR = test system: SR

Measured: GI50

N#Cc1c2nc3ccccc3nc2n2ccc3ccccc3c12
inactive: SK-MEL-28 > 100 µM | M14 > 100 µM | IGROV-1 > 100 µM | U-251 > 100 µM | SF-268 > 100 µM | SK-OV-3 > 100 µM | SF-295 > 100 µM | RPMI-8226 > 100 µM | UACC-257 > 100 µM | HL-60 > 100 µM | SNB-19 > 100 µM | OVCAR-5 > 100 µM | KM12 32.4 µM | COLO 205 > 100 µM

CC(=O)N/C(=C\c1cccc([N+](=O)[O-])c1)c1nc2ccc3c(c2[nH]1)C(=O)c1ccccc1C3=O
inactive: SK-MEL-28 > 100 µM | M14 70.3 µM | IGROV-1 10.4 µM | U-251 45.6 µM | SF-268 13.6 µM | SK-OV-3 13.6 µM | A498 22.8 µM | SF-295 > 100 µM | RPMI-8226 5.04 µM | SW-620 31.9 µM | SR 6.97 µM | HL-60 2.76 µM | SNB-19 > 100 µM | OVCAR-5 > 93.3 µM | KM12 7.57 µM | COLO 205 > 78.2 µM

CCOC(=O)C(=O)C(C#N)c1ccc(Cl)cc1 (configuration not stated)
inactive: SK-MEL-28 > 100 µM | M14 > 100 µM | IGROV-1 > 100 µM | U-251 > 100 µM | SF-268 > 100 µM | SK-OV-3 > 100 µM | A498 > 100 µM | SF-295 > 100 µM | RPMI-8226 > 100 µM | SW-620 > 100 µM | UACC-257 > 100 µM | HL-60 > 100 µM | SNB-19 > 100 µM | OVCAR-5 > 100 µM | COLO 205 > 100 µM

CCOC(=O)NC(=O)c1c[nH]c(=O)[nH]c1=O
inactive: SK-MEL-28 > 100 µM | M14 > 100 µM | IGROV-1 > 100 µM | U-251 > 100 µM | SK-OV-3 > 100 µM | A498 > 100 µM | SF-295 > 100 µM | RPMI-8226 > 100 µM | SW-620 > 100 µM | SR > 100 µM | UACC-257 > 100 µM | HL-60 > 100 µM | SNB-19 > 100 µM | OVCAR-5 > 100 µM | KM12 > 100 µM | COLO 205 > 100 µM

N#Cc1cccc(/C=N/N/C(N)=N/O)c1
inactive: SK-MEL-28 > 100 µM | M14 41.4 µM | IGROV-1 24.2 µM | U-251 59.6 µM | SF-268 26.3 µM | SK-OV-3 27.5 µM | A498 33.3 µM | SF-295 > 100 µM | SW-620 > 100 µM | SR 48.1 µM | UACC-257 > 100 µM | HL-60 15.2 µM | SNB-19 > 100 µM | OVCAR-5 > 100 µM | KM12 52.7 µM | COLO 205 > 100 µM

CC1=C(CO)C(=O)OC(C(C)C2CCC3C4CC5OC56C(O)C(N5CC5)=CC(=O)C6(C)C4CCC23C)C1 (configuration not stated)
inactive: SK-MEL-28 16 µM | M14 12.1 µM | IGROV-1 3.47 µM | U-251 4.22 µM | SF-268 3.81 µM | A498 2.11 µM | SF-295 16.5 µM | RPMI-8226 3.35 µM | SW-620 2.56 µM | SR 2.77 µM | UACC-257 11.9 µM | HL-60 1.61 µM | SNB-19 2.04 µM | OVCAR-5 17.4 µM | KM12 2.02 µM

CCOC(=O)CC(=O)ON(C)C(C)=O
inactive: M14 > 100 µM | IGROV-1 > 100 µM | U-251 > 100 µM | SF-268 > 100 µM | SK-OV-3 > 100 µM | A498 > 100 µM | SF-295 > 100 µM | RPMI-8226 > 100 µM | SW-620 > 100 µM | SR > 100 µM | UACC-257 > 100 µM | HL-60 > 100 µM | SNB-19 > 100 µM | OVCAR-5 > 100 µM | KM12 > 100 µM | COLO 205 > 100 µM

C[Si](C)(C)C(Sc1ccccc1)(Sc1ccccc1)Sc1ccccc1
inactive: SK-MEL-28 46.7 µM | U-251 57.7 µM | SF-268 76.6 µM | SK-OV-3 > 100 µM | A498 76.9 µM | SF-295 74.1 µM | RPMI-8226 41.7 µM | SW-620 46.7 µM | SR 35.7 µM | UACC-257 52.5 µM | HL-60 35.2 µM | SNB-19 > 100 µM | KM12 60.3 µM | COLO 205 62.2 µM

CC(=O)NC1=C(NCc2ccc(Cl)cc2)C(=O)c2ccccc2C1=O
inactive: SK-MEL-28 5.5 µM | M14 7.01 µM | IGROV-1 11.3 µM | U-251 6.7 µM | SF-268 16.5 µM | SK-OV-3 18.2 µM | SF-295 13.3 µM | SW-620 7 µM | SR 8 µM | UACC-257 6.17 µM | HL-60 1.39 µM | SNB-19 22.6 µM | KM12 8.17 µM | COLO 205 5.4 µM

CCCCN(CCCC)c1c([N+](=O)[O-])c(=O)nc2ccccn12
inactive: SK-MEL-28 13.7 µM | M14 27.9 µM | IGROV-1 > 100 µM | U-251 38.8 µM | SF-268 29.3 µM | SK-OV-3 > 100 µM | A498 22.3 µM | RPMI-8226 33.4 µM | SW-620 36.2 µM | SR 38.5 µM | SNB-19 72.9 µM | OVCAR-5 99.3 µM | KM12 31.3 µM | COLO 205 45.5 µM

CC[C@H](C)[C@H]1NC(=O)C(C(C)=O)=C1O
inactive: SK-MEL-28 64 µM | M14 > 100 µM | IGROV-1 > 100 µM | U-251 52.7 µM | SF-268 55.2 µM | A498 > 100 µM | SF-295 > 100 µM | SW-620 21.4 µM | SR 58.3 µM | UACC-257 51.6 µM | HL-60 99.8 µM | SNB-19 78.3 µM | OVCAR-5 > 100 µM | KM12 96.4 µM | COLO 205 > 100 µM

O=[N+]([O-])c1ccc(NC2OCC(O)C(O)C2O)cc1 (configuration not stated)
inactive: SK-MEL-28 > 100 µM | M14 > 100 µM | IGROV-1 > 100 µM | U-251 > 100 µM | SF-268 > 100 µM | SK-OV-3 > 100 µM | A498 > 100 µM | SF-295 > 100 µM | RPMI-8226 > 100 µM | SW-620 > 100 µM | SR > 100 µM | UACC-257 > 100 µM | SNB-19 > 100 µM | KM12 > 100 µM | COLO 205 > 100 µM

N=C(N)NS(=O)(=O)c1ccc(NCCc2c3ccccc3nc3ccccc23)cc1
inactive: SK-MEL-28 > 100 µM | M14 > 100 µM | IGROV-1 > 100 µM | U-251 > 100 µM | SF-268 > 100 µM | SK-OV-3 > 100 µM | SF-295 > 100 µM | RPMI-8226 7.26 µM | SW-620 > 100 µM | SR 33.9 µM | UACC-257 52.5 µM | HL-60 19.4 µM | SNB-19 > 100 µM | OVCAR-5 > 100 µM | KM12 > 100 µM | COLO 205 76 µM

CCOc1ccc2nc(NC(=O)c3c/c(=N\NC(=O)C[N+](C)(C)C)c4ccc(O)cc4o3)sc2c1
inactive: SK-MEL-28 5.75 µM | M14 1.63 µM | IGROV-1 2.65 µM | U-251 2.89 µM | SF-268 3.29 µM | SK-OV-3 11.3 µM | A498 14.6 µM | SF-295 3.38 µM | RPMI-8226 2.15 µM | SW-620 2.19 µM | SR 3.05 µM | UACC-257 1.49 µM | HL-60 1.59 µM | SNB-19 5.65 µM | OVCAR-5 3.37 µM | KM12 5.28 µM | COLO 205 1.63 µM

O=C(CC1(O)C(=O)Nc2c(Cl)cc(Cl)cc21)c1ccc2ccccc2c1 (configuration not stated)
inactive: SK-MEL-28 10.7 µM | M14 4.79 µM | IGROV-1 10.9 µM | U-251 6.92 µM | SF-268 12.2 µM | SK-OV-3 10.4 µM | A498 11.3 µM | SF-295 7.93 µM | RPMI-8226 5.22 µM | SW-620 3.66 µM | UACC-257 12.6 µM | HL-60 3.18 µM | SNB-19 11.4 µM | OVCAR-5 16.6 µM | KM12 5.92 µM | COLO 205 8.79 µM

CCC12CCCN(Cc3ccccc3)C1c1c(n(C)c3ccccc13)C(CO)C2 (configuration not stated)
inactive: SK-MEL-28 61 µM | IGROV-1 38.5 µM | U-251 49.3 µM | SF-268 114 µM | SK-OV-3 74.1 µM | SF-295 26.9 µM | RPMI-8226 37.2 µM | SW-620 35.6 µM | SR 25.5 µM | UACC-257 48.6 µM | HL-60 43.4 µM | SNB-19 55.5 µM | OVCAR-5 10.5 µM | KM12 40.4 µM | COLO 205 38 µM

Cc1cc(C)nc(NS(=O)(=O)c2ccc(NC(=O)c3ccc(Cl)c4c(Nc5ccc(S(=O)(=O)N=C(N)N)cc5)c5ccccc5nc34)cc2)n1
inactive: SK-MEL-28 58.9 µM | M14 > 100 µM | IGROV-1 63.8 µM | U-251 34.8 µM | SF-268 35.1 µM | SK-OV-3 > 100 µM | A498 > 100 µM | SF-295 > 100 µM | RPMI-8226 28.1 µM | SW-620 17.4 µM | UACC-257 51.8 µM | HL-60 3.72 µM | SNB-19 > 100 µM | OVCAR-5 > 100 µM | KM12 37.9 µM | COLO 205 61.5 µM

COC(=O)C1=C(C(=O)OC)C2(OC(C)=O)c3ccccc3-c3ccccc3C12 (configuration not stated)
inactive: SK-MEL-28 5.27 µM | M14 4.79 µM | IGROV-1 3.74 µM | U-251 7.87 µM | SF-268 7.62 µM | SK-OV-3 15.5 µM | A498 18.1 µM | SF-295 17.9 µM | RPMI-8226 2.62 µM | SW-620 1.66 µM | SR 2.33 µM | UACC-257 5.96 µM | HL-60 4.85 µM | SNB-19 > 40.7 µM | OVCAR-5 14.2 µM | KM12 12.5 µM | COLO 205 1.63 µM

From ChEMBL document CHEMBL1201862, “PubChem BioAssay data set” (2004)
